Experimental findings from US10941379B2, “Microbial system for biosynthesis of natural and engineered products coupled to in situ extraction in supercritical CO2” (Massachusetts Institute of Technology, priority 2016, dated 2021) are described below.

Structures are written as SMILES.

In assay [1] the test system is B. megaterium SR7. As to the kind of experiment: Biolog GenIII sole carbon source growth. The assay is classed as cell-based, Bacillus megaterium. Conditions: for Growth on Biolog sole carbon source, SR7: no metals added, Table 10; for Growth in carbon source Biolog plate, +Metals: trace metals-amended plate; for Growth in carbon source Biolog plate, +Metals / Growth in carbon source Biolog plate, I / Growth in carbon source Biolog plate, II: Table 11; for Growth in carbon source Biolog plate, I: unamended plate trial I; for Growth in carbon source Biolog plate, II: unamended plate trial II. The protocol: (§1) Plates were incubated at 37° C. on a plate shaker at 200 rpm and assayed for growth using NADH-dependent colorimetric changes measured by OD490 on a microplate reader (BioTek Synergy 2; BioTek; Winooski, Vt.).

Another assay relates to B. megaterium QM B1551. As to the kind of experiment: Biolog GenIII sole carbon source growth. In kind it is cell-based, Bacillus megaterium. Conditions: no metals added; Table 10. Here is the method: as §1
The test system of the next assay is B. megaterium DSM319. As to the kind of experiment: Biolog GenIII sole carbon source growth. The assay is classed as cell-based, Bacillus megaterium. Conditions: no metals added; Table 10. Here is the method: as §1
Assay [2] deals with B. megaterium SR7. Conditions: LB, aerobic. The protocol:
To help guide optimization of growth conditions for strain SR7, physiological tests were conducted under aerobic conditions. To determine tolerance for pH, salinity and bicarbonate, high throughput culturing was done in 96 well plates and scored for growth by OD600 using a microplate reader (BioTek Synergy 2; BioTek; Winooski, Vt.). 200 uL LB solutions/well were inoculated in triplicate with 10^4 spores/ml (based on SR7 spore stock filter counts) and incubated on a plate rocker at 37° C. with unamended positive and cell-free negative LB controls. Tests for pH tolerance (pH 2-10) were conducted in LB medium amended with HCl or NaOH. The effect of salinity and bicarbonate on growth was determined by adding NaCl (1-10%) and NaHCO3 (0.1-0.5M), respectively, to LB media. Optimal SR7 growth temperature was tested by inoculating 10^4 spores/ml in 5 ml of LB in triplicate at temperatures of 9-55° C. Cultures and cell-free negative controls were incubated without shaking, with subsamples taken for periodic OD600 measurements. SR7 antibiotic sensitivity was determined by supplementing 5 ml LB with ampicillin (5-50 μg/ml), chloramphenicol (3.5-35 μg/ml), kanamycin (5-50 μg/ml), spectinomycin (10-100 μg/ml), streptomycin (10-100 μg/ml), or tetracycline (1.5-15 μg/ml).

Assay [3] deals with B. megaterium SR7 spores. As to the kind of experiment: Delayed germination induction in PBS under 1 atm CO2 (bulk fluorescence, OD600). In kind it is cell-based, Bacillus megaterium. Conditions: 9.5 hours after delayed induction in PBS; for OD600 Fold Decrease: OD decrease indicative of germination. Here is the method:
Sub-sample bulk fluorescence (Syto9®) was measured by microplate reader (BioTek Synergy 2; 485/20 excitation, 528/20 emission) and OD600 was measured by microplate reader. OD should decrease in germinated cells (the index of refraction decreases due to hydration upon spore coat degradation) while bulk fluorescence should increase as the nucleic acid stain progressively penetrates and permeates the cell (Magge et al., 2009). To test for germination after a delayed inducer spike rather than at the moment of inoculation, B. megaterium SR7 spores loaded at OD600 0.01 were incubated overnight in 30 ml of PBS, passaged into PBS amended with L-alanine (25-250 mM) or L-leucine (10-25 mM) and then assayed for germination by bulk fluorescence and OD600 during incubation.

The test system of assay [4] is B. megaterium SR7 spores. As to the kind of experiment: Spore germination and growth under scCO2 with germination inducers. In kind it is cell-based, Bacillus megaterium. Conditions: pooled incubations, 18-20 days; unamended reactors 36%. Here is the method:
SR7 growth outcomes were investigated under scCO2 headspace (90-100 atm; 37° C.) while shaking at 250 rpm. SR7 spores were inoculated at starting concentrations of ˜3×10^4 spores/ml (unless otherwise specified) in either 50 mM K2HPO4-buffered LB (P-LB) or M9+ media (Table 1). Experiments assaying the effect of germination induction included 100 mM L-alanine and 10 mM L-leucine media amendments and heat treatment upon reactor pressurization (70° C. for 10 minutes). Incubations were conducted in 316 stainless steel vessels and gradually pressurized to supercritical conditions using a CO2/He cylinder, as previously described. SR7 germination was verified by the identification of vegetative cell morphologies using fluorescence microscopy of Syto9-stained cultures. Growth was defined by an increase of at least 10-fold growth in cell counts relative to t0.
In order to ascertain whether L-alanine, L-leucine, and heat treatment induce germination under scCO2 headspace, three replicate experiments were conducted comparing growth for SR7 spores when loaded in media P-LB, P-LBL, P-LBAL, or P-LBA±heat treatment (Table 1; Table 2). Reactors were depressurized and scored for germination and growth by fluorescence microscopy, as previously described.
Cell densities of P-LB and L-PBA incubations from the three experiments (Table 3; Incubations A-C) were subjected to statistical analysis to establish the significance of 100 mM L-alanine on spore growth outcomes. A non-parametric Wilcoxon/Kruskal-Wallis Test was performed on the dataset (JMP® Pro v.12; SAS Cary, N.C.) where growth outcome (growth/no growth) and cell density fold change (relative to t0) were dependent variables and incubation time and inducer presence/absence (±100 mM L-alanine) were independent variables. […]

The mark [5] stands for this setting: assayed 0, 100, 300, 500 mM over 36 h.
Where [6] appears, read: assayed 0, 5, 10, 50, 80, 100 g/L over 36 h.

Turning to `C[C@H](O)C(=O)O` [L-Lactic Acid], in the assay with B. megaterium SR7 [1], the “Growth on Biolog sole carbon source, SR7” value is “+”; the “Growth in carbon source Biolog plate, +Metals” value is “+”; the “Growth in carbon source Biolog plate, I” value is “+”; the “Growth in carbon source Biolog plate, II” value is “+”. Besides, the “Growth on Biolog sole carbon source, QM B1551” value in the assay on B. megaterium QM B1551 was “+++”. In addition, the “Growth on Biolog sole carbon source, DSM319” value with B. megaterium DSM319 was “+++”.
As for `OC[C@H]1O[C@H](O)[C@H](O)[C@@H](O)[C@@H]1O` [α-D-Glucose], in the assay with B. megaterium SR7 [1], the “Growth on Biolog sole carbon source, SR7” value is on record as “+”; the “Growth in carbon source Biolog plate, +Metals” value was “+++”; the “Growth in carbon source Biolog plate, I” value is “+”; the “Growth in carbon source Biolog plate, II” value is listed as “+”. The “Growth on Biolog sole carbon source, QM B1551” value in the assay on B. megaterium QM B1551 is “+”. Further, the “Growth on Biolog sole carbon source, DSM319” value in the assay with B. megaterium DSM319 is “+++”.
On to `O=C(O)O` [NaHCO3], for which, in the assay with B. megaterium SR7 [2] (setting [5]), the “Optimal for SR7 growth, NaHCO3” value lay in the range of 0 to 100 mM and the “Range of viable SR7 growth, NaHCO3” value was 0 to 300 mM.
In the case of `CC(C)C[C@H](N)C(=O)O` [L-leucine], the “Fluorescence Fold Increase” value with B. megaterium SR7 spores [3] (10 mM inducer) and in the assay on B. megaterium SR7 spores [3] (25 mM inducer) was 2.0 fold each time. The “OD600 Fold Decrease” value in the assay with B. megaterium SR7 spores [3] (10 mM inducer) and in the assay on B. megaterium SR7 spores [3] (25 mM inducer) was 1.2 fold in each case. In addition, the “Growth frequency of cultures under scCO2” value in the assay with B. megaterium SR7 spores [4] is on record as 7.7%.
Turning to `O=C(O)CC(Br)C(=O)O` (stereo not shown) [Bromo-Succinic Acid], in the assay with B. megaterium SR7 [1], the “Growth on Biolog sole carbon source, SR7” value is on record as “+”; the “Growth in carbon source Biolog plate, +Metals” value was “+”; the “Growth in carbon source Biolog plate, I” value is “+”; the “Growth in carbon source Biolog plate, II” value is on record as “+”. Also, the “Growth on Biolog sole carbon source, QM B1551” value in the assay on B. megaterium QM B1551 is reported as “+”. Further, the “Growth on Biolog sole carbon source, DSM319” value with B. megaterium DSM319 is listed as “+++”.
`N[C@@H](CCC(=O)O)C(=O)O` [L-Glutamic Acid]: in the assay on B. megaterium SR7 [1], the “Growth on Biolog sole carbon source, SR7” value is “+”; the “Growth in carbon source Biolog plate, +Metals” value is listed as “+++”; the “Growth in carbon source Biolog plate, I” value was “+”; the “Growth in carbon source Biolog plate, II” value is recorded as “+”. In addition, the “Growth on Biolog sole carbon source, QM B1551” value in the assay with B. megaterium QM B1551 is listed as “+++”. The “Growth on Biolog sole carbon source, DSM319” value in the assay on B. megaterium DSM319 is given as “+++”.
`OC[C@H]1O[C@@](CO)(O[C@H]2O[C@H](CO)[C@@H](O)[C@H](O)[C@H]2O)[C@@H](O)[C@@H]1O` [Sucrose]: in the assay with B. megaterium SR7 [1], the “Growth on Biolog sole carbon source, SR7” value is “−”; the “Growth in carbon source Biolog plate, +Metals” value is on record as “+”; the “Growth in carbon source Biolog plate, I” value is reported as “−”; the “Growth in carbon source Biolog plate, II” value is given as “+”. Further, the “Growth on Biolog sole carbon source, QM B1551” value in the assay on B. megaterium QM B1551 is reported as “+”. Besides, the “Growth on Biolog sole carbon source, DSM319” value in the assay on B. megaterium DSM319 is “+++”.
For `O=C(O)C[C@H](O)C(=O)O` [L-Malic Acid], in the assay on B. megaterium SR7 [1], the “Growth on Biolog sole carbon source, SR7” value is on record as “+++”; the “Growth in carbon source Biolog plate, +Metals” value is “+”; the “Growth in carbon source Biolog plate, II” value is “+++”. Further, the “Growth on Biolog sole carbon source, QM B1551” value in the assay on B. megaterium QM B1551 was “+++”. Also, the “Growth on Biolog sole carbon source, DSM319” value in the assay with B. megaterium DSM319 is on record as “+++”.
Take `CC(O)CC(=O)O` (racemic) [β-Hydroxy-D,L-Butyric Acid]: in the assay with B. megaterium SR7 [1], the “Growth on Biolog sole carbon source, SR7” value is “+”; the “Growth in carbon source Biolog plate, +Metals” value is listed as “+”; the “Growth in carbon source Biolog plate, I” value is “+”; the “Growth in carbon source Biolog plate, II” value is recorded as “+”. In addition, in the assay on B. megaterium QM B1551, the “Growth on Biolog sole carbon source, QM B1551” value is given as “+++”. In addition, the “Growth on Biolog sole carbon source, DSM319” value in the assay with B. megaterium DSM319 is listed as “+”.
For `N[C@@H](Cc1c[nH]cn1)C(=O)O` [L-Histidine], in the assay on B. megaterium SR7 [1], the “Growth on Biolog sole carbon source, SR7” value is “+”; the “Growth in carbon source Biolog plate, +Metals” value is on record as “+”; the “Growth in carbon source Biolog plate, I” value was “+”; the “Growth in carbon source Biolog plate, II” value is “+”. Further, the “Growth on Biolog sole carbon source, QM B1551” value in the assay with B. megaterium QM B1551 was “+”. Moreover, the “Growth on Biolog sole carbon source, DSM319” value in the assay with B. megaterium DSM319 is reported as “+++”.
Take `CC(=O)N[C@H]1C(O)O[C@H](CO)[C@@H](O)[C@@H]1O` (stereo partly drawn) [N-Acetyl-D-Glucosamine]: in the assay with B. megaterium SR7 [1], the “Growth on Biolog sole carbon source, SR7” value was “+”; the “Growth in carbon source Biolog plate, I” value is “+”; the “Growth in carbon source Biolog plate, II” value is on record as “+”. For the same compound, in the assay on B. megaterium QM B1551, the “Growth on Biolog sole carbon source, QM B1551” value is given as “+”. The “Growth on Biolog sole carbon source, DSM319” value in the assay with B. megaterium DSM319 is given as “+++”.
For the compound `[Cl-].[Na+]` [NaCl], in the assay with B. megaterium SR7 [2] (setting [6]), the “Optimal for SR7 growth, [NaCl]” value was 0 to 10 g/L and the “Range of viable SR7 growth, [NaCl]” value fell in the range of 0 to 100 g/L.
Turning to `O=C(O)[C@@H](O)[C@@H](O)[C@H](O)[C@@H](O)C(=O)O` [D-Saccharic Acid], in the assay with B. megaterium SR7 [1], the “Growth on Biolog sole carbon source, SR7” value is reported as “−”; the “Growth in carbon source Biolog plate, +Metals” value is “−”; the “Growth in carbon source Biolog plate, I” value is reported as “−”; the “Growth in carbon source Biolog plate, II” value is “+”. In addition, the “Growth on Biolog sole carbon source, QM B1551” value in the assay with B. megaterium QM B1551 is given as “+++”. The “Growth on Biolog sole carbon source, DSM319” value in the assay on B. megaterium DSM319 is “−”.
